From patent publication US20250034196A1, “ESTER DERIVATIVES OF N4-HYDROXYCYTIDINE AND USE THEREOF” (priority 2021, published 2025) come the findings set out here.

Data set [1] concerns SARS-CoV-2 Omicron B.1.1.529 variant. The note with it: Vero E6.
Data set [2] shares this test system. Briefly: microbe, parasite or virus in culture. The note with it: Severe acute respiratory syndrome coronavirus 2, Vero C1008, 96 h.

Structures are written as SMILES.

For the compound `CC(C)C(=O)OC[C@H]1O[C@@H](n2ccc(NO)nc2=O)[C@H](O)[C@@H]1O` [Molnupiravir], in data set [1], the “SI (CC50/EC50)” value is given as above 6.65. In data set [2], this compound displayed a 50% effective concentration (EC50) of 15.1 µM and an EC90 of 23.4 µM.
On the same counts, the results for `CC(=O)ONc1ccn([C@@H]2O[C@H](CO)[C@@H](O)[C@H]2O)c(=O)n1` [EX-2] are 11.38, 1.6 µM and 2.48 µM.

What is called EC50 is the concentration that produces a half-maximal response. The term EC90 denotes the point of the concentration-response curve where the effect stands at 90%. Read a high EC90 as a need for much substance.
